Measured values taken from PMC4414177, “A novel orally active water-soluble inhibitor of human glutathione transferase exerts a potent and selective antitumor activity against human melanoma xenografts” (Oncotarget, 2015).
Converted amounts (≈) assume the structure as drawn.

Assays:
GSTM2-2 = target: T1, GSTM2-2 (Homo sapiens, UniProt P28161); experiment: Inhibition of GSTM2-2 conjugation activity; assay type: biochemical; settings: GSTM2-2 5 nM
T1 construct: made in house; host or cells: Escherichia coli
T1 sequence (P28161 1-218): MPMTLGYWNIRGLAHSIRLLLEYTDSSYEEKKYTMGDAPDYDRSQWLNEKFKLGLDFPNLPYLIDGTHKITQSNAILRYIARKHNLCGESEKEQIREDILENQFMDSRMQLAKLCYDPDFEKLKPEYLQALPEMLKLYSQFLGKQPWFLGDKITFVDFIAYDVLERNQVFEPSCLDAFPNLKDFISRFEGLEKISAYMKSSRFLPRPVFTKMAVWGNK
Method: (§1) Human GSTM2-2, GSTP1-1, JNK1a2 and TRAF2 were expressed in Escherichia coli and purified as previously described; protein concentration was determined using the Lowry colorimetric assay. Unless specified otherwise, all chemicals were purchased from Sigma-Aldrich S.r.l. (Milan, Italy).
(§2) GST activity was determined spectrophotometrically at 340 nm (ε = 9,600 M^−1 cm^−1), as previously reported. Inhibition experiments were performed by measuring GSTP1-1 (20 nM) or GSTM2-2 (5 nM) activities in the presence of various amounts of the selected NBD derivative (from 0.1 to 20 μM with GSTP1-1, and from 0.005 and 1 μM with GSTM2-2). Fifty percent inhibitory concentration (IC50) values were calculated by fitting the data to Equation 1, where ν is the percentage of the saturated binding sites; [P]t is the total GST concentration and [L]t is the total inhibitor concentration, assuming a 1:1 interaction stoichiometry between the inhibitor and one GST subunit, as well as that the binding sites are equal and independent.

A375 = experiment: Cell growth inhibition, SRB assay; assay type: cell-based; settings: Homo sapiens, A-375, A375, 48 h
Method: (§3) The IC50 values for each compound were then evaluated by the SRB assay.

G-361 = experiment: Cell growth inhibition, SRB assay; assay type: cell-based; settings: Homo sapiens, G-361, 48 h
Method: as §3

IST-MEL-1 = experiment: Cell growth inhibition, SRB assay; assay type: cell-based; settings: Homo sapiens, IST-MEL-1, 48 h
Method: as §3

MALME-3M = experiment: Cell growth inhibition, SRB assay; assay type: cell-based; settings: Homo sapiens, 48 h
Method: as §3

SK23-MEL = experiment: Cell growth inhibition, SRB assay; assay type: cell-based; settings: Homo sapiens, 48 h
Method: as §3

A375 cells [1] = experiment: Cell cycle analysis (PI, flow cytometry); assay type: cell-based, human; settings: A375, pretreatment with SP600125 20 μM, 24 hrs exposure to MC3181
Method: A375 and SK23-MEL cells, were fixed with 70% ethanol overnight, stained with PI staining buffer ([…] and 1% Triton X-100) and analyzed by a FACSCalibur (BD Bioscence, San Jose, CA, USA). The percentage of early apoptotic, late apoptotic, and necrotic cells was determined by simultaneous staining of cells with PI (2 μg/ml) and Annexin V-FITC (0.5 μg/ml) (Sigma Aldrich), according to manufacturer's protocol. Flow cytometric data were analyzed by the FlowJo 8.8.6 software (Tree Stare, Inc, Ashland, OR, USA).

A375 cells [2] = experiment: Caspase-3 activity in cell lysates; assay type: cell-based, human; settings: A375, pretreatment with SP600125 20 μM, 24 hrs exposure to MC3181
Method: Apoptosis was confirmed by measuring caspase-3 activity, at 25°C, in total cell lysates, using the model fluorescent peptide substrate N-Acetyl-Asp-Glu-Val-Asp-7-amido-4-trifluoromethylcoumarin (Ac-DEVD-AFC). […] Caspase activity was expressed as change in fluorescence per min, per 10^6 cells.

A375 human melanoma = experiment: A375 fragment xenograft model, antitumor efficacy; assay type: in vivo, mice; settings: MC3181 i.v. 8mg/kg/d q1dx5 three weeks
Method: With regard to the in vivo fragment tumor model, A375 cells were injected (1×10^7) subcutaneously (s.c.) into the right flank of an athymic Nude-Foxn1nu female mouse, and the established primary tumor was then removed and cut into fragments (2–3 mm diameter) and implanted s.c. into recipient mice. Animals were randomly divided in groups of 7 mice and treatment was initiated when a tumor volume of 0.12 ± 0.01 cm^3 (mean ± SEM) was reached.
The reference drug temozolomide, dissolved in DMSO/PBS 1:1 to a final concentration of 10 mg/ml, was administered i.p. q1dx5 at a dose of 100mg/kg/day.
Primary tumor growth was determined for all animals by caliper measurement (minor and major axis length), three times per week, until they were sacrificed. Primary tumor volume was determined using the following equation: V (cm^3)=(α^2×β)/2 (Eq. 3)
The efficacy of the treatment was also analyzed by calculation of the percentage of Increase in Life Span (% ILS), since this analysis gives an evidence of clinical potency. Survival endpoint for each animal was fixed at the day when tumor volume reached 1.0 cm^3 (A375) or 0.4 cm^3 (SK23-MEL and G-361), and data were used to plot the relative Kaplan-Meier curves. Treatment efficacy was then evaluated by comparing the Median Survival Time (MST) of treated group with the MST of control group, and expressed as percentage of ILS: % ILS=[100×(MSTtreated group)/(MSTcontrol group)]−100 (Eq. 4)
Treatment was considered effective when % ILS > 20%.

[3] = test system: mice bearing human tumor xenografts; experiment: Toxicity in tumor-bearing mice (net BW variation, macroscopic autopsy); assay type: in vivo; settings: during treatment, MC3181 8 mg/kg/day, TMZ 100 mg/kg/day i.p.
Method: Toxicity was also evaluated in tumor-bearing mice on the basis of macroscopic autopsy findings, mainly in terms of alteration to the size and color of vital organs, and net BW reduction. The percentage of net BW variation, between the first day of treatment and sacrifice day (or day of interest), was evaluated according to the following equation: % net BW variation =net BW at observation day −net BW at first day of treatment/net BW at first day of treatment ×100 (Eq. 2)

[4] = Solubility limits in aqueous buffers; assay type: physicochemical; settings: thermodynamic from solid
Source text: The solutions obtained were separated from any undissolved matter by centrifugation at 15,000 g and evaluated for drug concentration by recording compound absorbance at 425 nm, using molar extinction coefficients calculated at the same wavelength with diluted standard solutions, prepared in the same matrices.

[5] = Spontaneous reactivity with GSH (UV-visible spectra); assay type: physicochemical; settings: 40 μM compound, 1 mM GSH, 0.1 M potassium phosphate buffer pH 6.5, 25°C, within 1 h
Method: The spontaneous reactivity of the NBDs with GSH was determined at 25°C by recording the UV-visible spectrum of each compound (40 μM) incubated with 1 mM GSH, in 0.1 M potassium phosphate buffer, pH 6.5, at different time points.

GSTP1-1 [6] = target: T2, GSTP1-1 (Homo sapiens, UniProt P09211); experiment: Sigma complex formation in the GSTP1-1 active site; assay type: biochemical; settings: 40 μM compound, 40 μM GSTP1-1, 1 mM GSH, pH 6.5, 25°C
T2 construct: made in house; host or cells: Escherichia coli
Method: as §1
The ability of GSTP1-1 to stabilize the intermediate σ-complex formed between GSH and the compounds, was evaluated by recording the spectrum of each molecule (40 μM), in 0.1 M potassium phosphate buffer, pH 6.5, before and after the addition of a stoichiometric amount of GSTP1-1 and 1 mM GSH.

GSTP1-1 [7] = target: T2, GSTP1-1; experiment: Inhibition of GSTP1-1 conjugation activity; assay type: biochemical
Method: as §1
as §2, with “Inhibition experiments were performed by measuring GSTP1-1 (20 nM) or GSTM2-2 (5 nM) activities in the presence of various amounts of the selected NBD derivative (from 0.1 to 20 μM with GSTP1-1, and from 0.005 and 1 μM with GSTM2-2).” left out

T2 sequence (P09211 2-210 limits assumed): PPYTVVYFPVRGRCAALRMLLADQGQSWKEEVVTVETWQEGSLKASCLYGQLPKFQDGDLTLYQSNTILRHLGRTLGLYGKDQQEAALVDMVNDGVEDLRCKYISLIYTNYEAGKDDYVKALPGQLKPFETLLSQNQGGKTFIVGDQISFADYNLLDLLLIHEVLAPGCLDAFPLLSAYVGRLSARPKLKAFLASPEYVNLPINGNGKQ

O=[N+]([O-])c1ccc(SCCCCCCO)c2nonc12 [NBDHEX, 6-((7-nitrobenzo[c][1,2,5]oxadiazol-4-yl)thio)hexan-1-ol, reference compound]
IC50 (GSTM2-2): ≤ 10 nM | IC50 (A375): 1450 ± 140 nM | IC50 (G-361): 550 ± 30 nM | IC50 (IST-MEL-1): 1420 ± 50 nM | IC50 (MALME-3M): 1800 ± 120 nM | IC50 (SK23-MEL): 1190 ± 90 nM

Oc1c2ccccc2c2c3c(cccc13)N=N2 [SP600125, reference compound]
reduction of the MC3181-elicited increase in the number of cells in Sub-G1 phase (A375 cells [1]): about 40% | reduction of the MC3181-elicited increase of caspase-3 activity (A375 cells [2]): about 50%

Cn1nnc2c(C(N)=O)ncn2c1=O [TMZ, temozolomide, reference compound]
%ILS (A375 human melanoma; TMZ i.p. 100 mg/kg/d q1dx5): 35% | tumor growth (A375 human melanoma; TMZ i.p. 100 mg/kg/d q1dx5, from day 13 onward, P < 0.05): significantly delayed tumor growth | decrease in BW [3]: ~15%

O=[N+]([O-])c1ccc(SCCOCCO)c2nonc12 [MC3165, 2-(2-((7-nitrobenzo[c][1,2,5]oxadiazol-4-yl)thio)ethoxy)ethan-1-ol]
solubility ([4]; potassium phosphate buffer, pH 7.4, 0.1 M K-Phosphate buffer): 2000 µM (≈ 571 µg/mL) | solubility ([4]; sodium acetate buffer, pH 2.0, 0.1 M Na-Acetate Buffer): 2000 µM (≈ 571 µg/mL) | solubility ([4]; sodium acetate buffer, pH 5.0, 0.1 M Na-Acetate Buffer): 1900 µM (≈ 542 µg/mL) | decrease of the absorbance value at 430 nm after addition of excess GSH [5]: less than 15% | stability of the σ-complex, rank order (GSTP1-1 [6]): NBDHEX > MC3181 > MC3165 | Selectivity Index IC50GSTP1-1/IC50GSTM2-2 (GSTP1-1 [7]): 78 | IC50 (GSTP1-1 [7]; GSTP1-1 20 nM): 4000 ± 200 nM | IC50 (GSTM2-2): 51 ± 8 nM
